Data taken from patent publication US20040086949A1, “Method for preparing a ligand presenting assembly (LPA), an LPA and uses thereof” (Statens Serum Institut, priority 1998, published 2004).
Ends that are not written are not given here.

Key:
[1] = test system: IgM antibodies in sera from patients with neuroborreliosis; assay: Indirect IgM-ELISA with LPA-I or biotinylated-pepC10 as coated antigen; type: binding, human; settings: NB sera (n = 97), sera diluted 1/200, 98% specific cut-off
Protocol: The capability of LPA-I according to the present invention to react with sera from patients with neuroborreliosis was evaluated against that of an ELISA based on biotinylated-pepC10, wherein pepC10 is identical to the amino acid sequence of Seq. ID 1.
Preparing plates for the LPA-I-ELISA: Microtiter plates (Maxisorb; Nunc, Roskilde, Denmark) were coated overnight at 4° C. with 0.6 μg/ml of LPA-I diluted in 0.05 M bicarbonate pH 9.6, blocked with 3% (w/v) milk powder in phosphate-buffered saline (PBS) for 1 h, and reacted with sera diluted 1/200 in 1% (w/v) milk powder in PBS containing 0.05% Tween 20 (PBST) and 0.7 M NaCl for 2 h. The secondary antibody was a peroxidase conjugated rabbit anti-human IgM (Dako, Denmark, codes P-215) diluted 1/1000 in 1% (w/v) milk powder in PBST. After 1 h of incubation, bound secondary antibody was quantitated by colouring with o-phenylenediamine and H2O2 in citrate buffer (Sigma, St. Louis, Mo.) for 30 min. Optical density (OD) at 492 nm was determined in a plate reader (EAR 400 AC-SLT, Labinstruments, Austria). Plates were washed extensively with PBST-0.5M NaCl between each incubation step. The 98% specific diagnostic cut-off level was OD of 0.270 for IgM detection.
Preparing plates for the biotinylated-pepC10-ELISA: ELISAs with biotinylated-pepC10, were performed essentially as described above for LPA-I, except that microtiter plates were first coated with streptavidin (2.5 μg/ml) (Zymed, S. Avidinii) in citrate buffer (pH 5) overnight at 4° C., and then incubated with biotinylated pepC10 (0.1 μg/ml) in 1% (w/v) milk powder in PBST-0.37 M NaCl overnight at 4° C.
(i) Sera from 97 Danish patients with neuroborreliosis (NB). All patients had been hospitalised in 1994 ([…] between 4 and 80 years of age; median age, 49). The selection was based on a positive test for B. burgdorferi specific intrathecal antibody synthesis. The diagnosis was further corroborated by the presence of lymphocytic pleocytosis in CSF (median cell count, 124/μl) and one of the following manifestations: lymphocytic meningoradiculitis with typical painful radiculitis, mononeuritis multiplex (Bannwarth's syndrome), radiculomyelitis, monosymptomatic fascialis paresis (all children), subacute lymphocytic meningitis, and chronic progressive encephalomyelitis. Of the 100 patients, 48 recalled a previous EM-like skin lesion. Disease duration, defined as the time from onset of neurological symptoms until diagnostic blood and CSF samples were taken, ranged from 1 week to 26 weeks (median duration, 3 weeks).
Sera from 80 healthy controls were used for determination of the 98%-specific cut-off level in ELISAs.

[2] = test system: C-terminal B-cell epitope of OspC; assay: Immunogenicity of LPA-VI in mice, serum Ig ELISA against recombinant OspC and LPA-I; type: in vivo; settings: five female C57 black mice, 5 μg i.p. on days 0 and 14 with Al(OH)3 and Freund's incomplete adjuvant, sera diluted 200 fold
Protocol: The capability of an LPA according to the present invention to induce a humoral immune response was studied by immunising mice with LPA-VI. Five female C57 black mice (age 6 to 8 weeks) were immunised two times intraperitoneally with a 2-week interval and were bled on days 0, 14, and 28. Each immunisation dose contained. 5 μg of LPA-VI dissolved in 0.25 ml 0.9% NaCl and supplemented with 1 mg Al(OH)3 (Superfos Biosector, Denmark) and 0.25 ml Freund's incomplete adjuvant. The serum samples were diluted 200 fold and then tested by ELISA for Ig reactivity against OspC produced on recombinant form (WO 97/42221) and LPA-I (FIG. 8).
FIG. 8. Mean ELISA titer of sera from five mice immunised with LPA-VI on days 0 and 14. The microdilution plates were coated with LPA-I (diamond) or recombinant OspC (Squares), and the sera were analysed in a 200-fold dilution.

Substance | % of IgM reactive sera (frequency of positive Lyme borreliosis sera) [1] | No. of IgM reactive sera [1] | induction of antibodies against the C-terminal B-cell epitope of OspC [2]
biotinylated-pepC10: biotinylated peptide; pepC10 is identical to the amino acid sequence of Seq. ID 1 (ProValValAlaGluSerProLysLysPro), bound to streptavidin-coated plates (PVVAESPKKP; also: biotinylated, place not given here) [reference compound] | 43.3% | 42 | 
(HO-ProLysLysProSerGluAlaValValPro-COCH2)2N-Lys(AlaSerAlaAlaAlaGluIleGlyAlaPheAsnTrpGlnGlnGluThrMet-H)2 [LPA-VI] |  |  | highly effective in inducing antibodies
FmocN(CH2CO-ProValValAlaGluSerProLysLysPro-OH)2 [LPA-I] | 42.3% | 41 | 
